Experimental data: patent US6517871B1, “Bioenhanced formulations comprising eprosartan in oral solid dosage form” (SmithKline Beecham Corporation, priority 1998, dated 2003)
Where a name gives a salt, the structure may show the parent alone.

What was measured:
clinical = conditions: human, in vivo
Text: Eprosartan is an amphiphilic molecule containing two acidic (allylic carboxylic acid and phenylic carboxylic acid) and one basic (imidazole) functional groups. At lower pH (below 2) the imidazole nitrogen will be protonated (form ii). As the pH increases, the allylic carboxylic group will be deprotonated (form iii). […] As the pH increases further, the phenylic carboxylic group will be depronated (form iv) followed by the deprotonation of the protonated imidazole group (form v). […] According to the pH-partitioning theory of absorption, only the unionized species (form ii) or the ion-neutral species (form iii) will be absorbed by passive diffusion. […] The time to maximum concentration is between 1 to 2.5 hours in fasted state and 2.5-4 hours in fed state. […] Additionally, since the commercial form of the drug is as its mesylate, which becomes dihydrated during the formulation process, high dose tablets (e.g., 600 mg tablets weigh 1,200.0 mg) may be difficult to swallow.

[1] = pH-solubility profiles (FIG. 2); type: physicochemical; conditions: pH >4.0 to 5.5, where the enteric coat starts to release

bioavailability (clinical)	mean absolute bioavailability (clinical)	time to maximum concentration (clinical)	drug solubility at initiation pHs [1]	Compound
~13%	–	–	–	CCCCc1ncc(/C=C(\Cc2cccs2)C(=O)O)n1Cc1ccc(C(=O)O)cc1 [eprosartan mesylate, (E)-α-[2-n-Butyl-1-[(4-carboxyphenyl)methyl]-1H-imidazol-5-yl]methylene-2-thiophenepropionic acid monomethanesulfonate]
–	approximately 13%	1 to 2.5 h	negligible	CCCCc1ncc(/C=C(\Cc2cccs2)C(=O)O)n1Cc1ccc(C(=O)O)cc1 [eprosartan, (E)-α-[2-n-butyl-1-[(4-carboxyphenyl)methyl]-1H-imidazol-5-yl]methylene-2-thiophenepropionic acid]
